Tested on: UCP1 and DIO2 expression in differentiated hBA
Test: Q-RT-PCR for UCP1 and DIO2 in differentiated hBA treated with norepinephrine or browning agents
Type: cell-based, human
Conditions: hBAs from subject 2; 1 uM norepinephrine (NE) for 4 h
Procedure: FIG. 4A depicts total cellular respiration rate (OCR) measured using the Seahorse extracellular flux analyzer in differentiated hWA and hBA from Sub1 and Sub2 that were treated for 4 h with 10 uM forskolin (Fsk). The same number of cells was used in the assay. Data are presented as mean±s.e.m. (n=10; two-tailed Student's t-test; *P<0.05, **P<0.01, ***P<0.001). A representative experiment from a total of three independent studies is shown. FIG. 4B depicts Q-RT-PCR analysis for UCP1 and DIO2 expression in differentiated hWA and hBA from Sub1 and Sub2 that were treated for 48 h with 3.3 nM BMP7, 3.3 nM BMP8 and 50 nM FGF21. Data are presented as a fold change compared to vehicle treatment of hWA in each subject (mean±s.e.m., n=3; two-tailed Student's t-test; *P<0.05, **P<0.01, ***P<0.001). A representative experiment from a total of three independent studies is shown. […]
RNA extraction, cDNA synthesis, and quantitative real-time PCR (Q-RT-PCR) were performed as described before (Cypess, A. M., et al. Nat Med 19, 635-639, 2013; Tseng, Y. H., et al. Nature 454, 1000-1004, 2008). Q-RT-PCR assays were run in duplicates and quantified in the ABI Prism 7900 sequence-detection system using SYBR (Roche Applied Science, Indianapolis, Ind.). Relative mRNA expression was determined by the delta-Ct method and the values were normalized to the expression of 18S ribosomal RNA (18s).

## NC[C@H](O)c1ccc(O)c(O)c1 [norepinephrine]
  levels of UCP1 and DIO2: increasing the levels of UCP1 and DIO2
